Results as given in patent publication US8092790B2, “Methods of making formulations to affect insect behavior and/or bird behavior” (Bug Buster, Ltd., priority 2003, dated 2012).
“And” between values parts separate entries of the source, which are not always exact repeats. Equal entries are not always repeated.

Legend:
[1] = test system: fruit flies (Drosophila spp.); experiment: Attraction of fruit flies, sticky trap with treated surface; assay type: in vivo
Description: An exemplary compound, methyl anthranilate, was combined with fatty acid and used to attract insects, in particular, fruit flies (Drosophila spp.). This exemplary compound will also repel at least some birds. […] An exemplary compound, methyl anthranilate, was combined with fatty acid and applied to a surface (e.g., a treated surface) of a sticky trap and used to attract and to trap insects, in particular, fruit flies (Drosophilia spp.). This exemplary compound will also repel at least some birds.
A trial compared insect attraction for an untreated surface of a sticky trap and with a treated surface of a sticky trap.
For example, grape crushing and/or fermenting may release competitive agents.

[2] = test system: larvae in a laboratory growing medium; experiment: Application to larvae in laboratory growing medium; assay type: in vivo; conditions: control group remained in growing medium
Description: Trials involved applying an exemplary compound to larvae in a laboratory growing medium.
An exemplary compound, methyl anthranilate (e.g., BIRDSHIELD™) was applied to insects that were first allowed to adapt to a laboratory environment. A control group of insects were not exposed to the exemplary compound.

[3] = test system: house flies (D. melanogater); experiment: Treated aluminum siding section on building; assay type: in vivo; conditions: 0.025%
Description: (§1) An exemplary compound, methyl anthranilate (e.g. Bird Shield™) was applied at 0.025% concentration to a three foot by one foot (three square feet) section of aluminum siding (treated section) and compared with a equal sized section of aluminum siding (untreated section) on the side of a building. Approximately 23 to 25 house flies (D. melanogater) had landed and were resting on each section. […] All of the flies on the untreated section remained. […] Twenty-three flies remained on the adjacent untreated section.

house flies = experiment: Treated aluminum siding section on building; assay type: in vivo, D. melanogater; conditions: 0.025%, thirty minutes after application
Description: as §1

[4] = test system: corn ear worm (Heliothus zea); experiment: Exemplary compound applied after insecticide, sweet corn; assay type: in vivo
Description: An exemplary compound, methyl anthranilate, was applied to sweet corn after the crop had been treated with an insecticide (e.g., the pyrethrin insecticide WARRIOR™) to control corn ear worm (Heliothus zea). Prior to application of the exemplary compound, few if any larvae, which typically reside in the developing ear, were observed on the ground around the corn stalks.
After applying the exemplary compound, methyl anthranilate, at a concentration of approximately 4.5 oz.

[5] = test system: sunflower seed weevils (Smicronyx spp.); experiment: Comparison to DEET product, drawing weevils out of sunflower heads; assay type: in vivo
Description: DEET is often used by entomologists in standard procedures to draw sunflower seed weevils (Smicronyx spp.) out of the heads of sunflowers. In this trial, DEET was provided in the commercially available product DEEP WOODS OFF™ repellent (S.C. Johnson and Son's, Racine, Wis.), which has approximately 28.5% active ingredient; 1.5% other isomers and 70% inert ingredients. Forty-two flowers were randomly selected from interiors of three fields. One-half of the flowers were sprayed with the DEET containing repellent while the remaining flowers were sprayed with the exemplary compound at a concentration of approximately 0.00312% methyl anthranilate, which was combined with long chained fatty acids. The number of sunflower weevils was recorded.

[6] = test system: striped sunflower head moth larvae; experiment: Exemplary compound on sunflowers previously sprayed with esfenvalerate, moth larvae emerging; assay type: in vivo
Description: (§2) An exemplary compound, methyl anthranilate, was combined with long chain fatty acids. An exemplary method applied the mixture to fifteen maturing sunflowers in the interior of two fields that were previously sprayed with an insecticide, esfenvalerate (e.g., the insecticide product ASANA™). The mixture that included the exemplary compound was applied by spraying the mixture across the head of each flower (e.g., where seeds exist). The number of striped sunflower head moth larvae and weevils, emerging from the seeds, was recorded.

adult weevils = experiment: Exemplary compound on sunflowers previously sprayed with esfenvalerate, weevils emerging; assay type: in vivo
Description: as §2

ant nest = experiment: Treatment of ant nest; assay type: in vivo; conditions: diluted form; about 24 hours post-application
Description: An exemplary method includes applying an exemplary compound or an exemplary composition to an insect nest.

birds = experiment: Container placed in aircraft hanger; assay type: in vivo; conditions: 2.5 gallon HDPE container at least partially filled
Aenictus = conditions: in vivo; cited from earlier work
Thrips hawaiiensis = conditions: in vivo; cited from earlier work
T. tabaci = conditions: in vivo; cited from earlier work
[7] = test system: Thaumatomyia glabra (Meigen) flies; conditions: in vivo; cited from earlier work

COC(=O)c1ccccc1N [methyl anthranilate]
attraction of fruit flies ([1]; combined with fatty acid): attracted fruit flies
effectiveness in a competitive environment ([1]; grape crushing and/or fermenting may release competitive agents): may be diminished in a competitive environment
insects on treated surface of sticky trap ([1]; in less than one minute, only a few insects on untreated surface): covered with insects
behavior of exposed insects [2]: emerged quickly from the laboratory growing medium
flies resting on treated section ([3]; immediately after application): all of the flies departed
flies on treated section ([3]; one hour after application): no flies were observed trying to land on the treated section
time flies remained on treated section ([3]; thirty minutes after application): 6 to 8 s
flies on treated section ([3]; twenty-four hours after application): no flies were observed on the treated section
flies attempting to land on treated section within a five minute period (house flies): approximately 30 flies
insects on the ground around the corn stalks ([4]; approximately 4.5 oz. (127 g) per acre by aircraft, after WARRIOR treatment): a significant number of insects were observed on the ground
worms in the corn ears at harvest ([4]; insecticide (WARRIOR) and methyl anthranilate): did not contain any significant number of worms
Number of insects, Mean ([5]; Field No. 1): 6.8
Number of insects, Total ([5]; Field No. 1): 68
Number of insects, Mean ([5]; Field No. 2): 24
Number of insects, Total ([5]; Field No. 2): 72
Number of insects ([5]; Field No. 2, per flower, DEET as DEEP WOODS OFF, methyl anthranilate approx. 0.00312% with long chained fatty acids): 23 and 24 and 26
Number of insects, Mean ([5]; Field No. 3): 8.4
Number of insects, Total ([5]; Field No. 3): 67
effectiveness compared with DEET ([5]; approx. 0.00312% methyl anthranilate with long chained fatty acids vs DEET repellent product): generally more effective than DEET
Number of Moth Larvae, Mean ([6]; Field No 2): 0.86
Number of Moth Larvae, Total ([6]; Field No 2): 6
Number of Moth Larvae, Mean ([6]; Field No. 1): 0.57
Number of Moth Larvae, Total ([6]; Field No. 1): 4
drawing larvae and weevils out of the seeds ([6]; after the crop had been treated with the insecticide alone): successful in drawing striped sunflower head math larvae out of the seeds
Number of Adult Weevils, Mean (adult weevils; Field No 2): 1.14
Number of Adult Weevils, Total (adult weevils; Field No 2): 8
Number of Adult Weevils, Mean (adult weevils; Field No. 1): 0.43
Number of Adult Weevils, Total (adult weevils; Field No. 1): 3
ant activity at the site of the nest (ant nest): no ant activity was observed
bird population in hanger (birds): bird population dwindled
surface guano on aircraft (birds): significant drop in surface guano
semiochemical function for Aenictus (Aenictus): trail semiochemicals
attraction of Thrips hawaiiensis (Thrips hawaiiensis): are attracted
attraction of T. tabaci (T. tabaci): did not attract
attraction of Thaumatomyia glabra flies [7]: attractive
